Source: patent US20100210596A1, “USE OF AMINOPYRIMIDINE COMPOUNDS IN THE TREATMENT OF IMMUNE DISORDERS” (priority 2006, published 2010)

Columns and labels:
[1] = system: NOD mice; assay: Gleevec prevention studies in pre-diabetic NOD mice (diabetes incidence by blood glucose); format: in vivo, mouse
Experimental: (§1) Further studies were carried out to determine if Gleevec could be discontinued and maintain its efficacy. New onset mice were treated as above for only 3 weeks after onset and examined for disease recurrence (FIG. 1B). […] of mice (7/8) went into remission during the 3 weeks of therapy. For the majority of mice, remission was short lived as 5/8 mice (FIG. 1B, solid circles) became hyperglycemic within 1-2 weeks after cessation of drug therapy. However, 3/8 mice (FIG. 1B, open circles) remained in remission more than 6 weeks after the last dose of Gleevec. […] Ten week old NOD mice were treated daily with Gleevec ([…]) or peanut oil and followed for disease incidence. None of the Gleevec-treated and 50% of the peanut oil-treated mice were diabetic at 18 weeks of age.
Pre-diabetic NOD mice were treated with Gleevec for 7 weeks starting at 12 weeks of age. The Gleevec was emulsified in peanut oil and given by gavage (100 mg/kg) daily. Control animals were treated with peanut oil alone. Mice were tested for diabetes based on blood glucose. Mice with two consecutive glucose readings of greater than 250 mg/dl were considered diabetic.

[2] = system: NOD mice; assay: Treatment of new onset diabetic NOD mice with Gleevec (remission of diabetes, blood glucose); format: in vivo, mouse
Experimental: NOD mice were treated by gavage (oral) daily (M-F) with 50 mg/kg of commercially-available Gleevec suspended in peanut oil. Treatment was initiated at the time of disease onset (blood sugars above 250 mg/dl) and continued for the duration of the experiment.
as §1
Diabetic NOD mice (250-350 mg/dL) were treated with Gleevec for a short course (3 weeks) or longer courses (8-10 weeks) daily 3 times per week (3×/wk); and blood glucose assessed as described in Example 2. […] The majority of the daily, 8-10 week-treated group remained normal glycemic for >2 months after ending therapy. Peanut oil treatment had no effect in reversing diabetes.
In another dosing regimen, NOD mice were treated with Gleevec (100 mg/kg) by daily oral gavage Monday through Friday for 2 weeks, followed by daily Gleevec (100 mg/kg) via oral gavage three times per week for 6 weeks. Four of 5 mice went into disease remission.

[3] = system: NOD mice injected with cyclophosphamide (CY); assay: Cyclophosphamide model: diabetes incidence in CY-injected NOD mice; format: in vivo; conditions: 14.5 week-old NOD mice, CY 300 mg/kg i.p., Gleevec 1.5 mg/mouse/day oral for 7 weeks; FIG. 3
Experimental: 14.5 week-old NOD mice were injected intraperitoneally (i.p.) with cyclophosphamide (CY) (300 mg/kg) in conjunction with daily oral Gleevec therapy or control peanut oil. Gleevec treatment (1.5 mg/mouse/day) lasted 7 weeks. Mice were tested for diabetes based on blood glucose. Mice with two consecutive glucose readings of greater than 250 mg/dl were considered diabetic.

[4] = 100 mg/kg oral gavage daily Monday-Friday for 2 weeks, then 100 mg/kg three times per week for 6 weeks
[5] = new onset mice, 50 mg/kg oral daily for only 3 weeks after onset, FIG. 1B

CS(=O)(=O)O.Cc1ccc(NC(=O)c2ccc(CN3CCN(C)CC3)cc2)cc1Nc1nccc(-c2cccnc2)n1 [Gleevec]
percent of mice in which diabetes was prevented ([1]; pre-diabetic NOD mice, 100 mg/kg gavage daily for 7 weeks starting at 12 weeks of age, diabetic = two consecutive glucose readings >250 mg/dl, FIG. 2): 90% | mice diabetic at 18 weeks of age ([1]; ten week old NOD mice treated daily (50 mg/ml as printed), preliminary experiments): None | mice going into remission ([2]; 50 mg/kg oral gavage daily (M-F) in peanut oil, started at disease onset (blood sugars above 250 mg/dl), continued for duration of experiment, FIG. 1A): All of the treated mice went into remission | relapse during the course of the study ([2]; 50 mg/kg oral gavage daily (M-F), continuous treatment from onset, FIG. 1A): none relapsed | mice that maintained normoglycemia for the duration of the experiment (>30 weeks after onset) [2, 4]: Three of the 5 | mice that went into disease remission (number of total) [2, 4]: Four of 5 | mice that remained in remission more than 6 weeks after the last dose (number/total) ([2]; 3-week treatment, FIG. 1B open circles): 3/8 | mice that became hyperglycemic within 1-2 weeks after cessation of drug therapy (number/total) ([2]; 3-week treatment, FIG. 1B solid circles): 5/8 | blood glucose levels maintained in treated mice ([2]; NOD mice treated with Gleevec after onset): approximately 200 mg/dl | time the majority of the group remained normal glycemic after ending therapy ([2]; daily, 8-10 week-treated group): > 2 months | reversal of diabetes ([2]; diabetic NOD mice (250-350 mg/dL), all treatments: 3 weeks or 8-10 weeks, daily or 3x/wk): effective in reversing diabetes in the majority of mice | mice that went into remission during the 3 weeks of therapy (number/total) [2, 5]: 7/8 | percent of mice that went into remission during the 3 weeks of therapy [2, 5]: Greater than 90% | long term maintenance (>20 week) of normoglycemia ([2]; short course 3 weeks versus long course 8-10 weeks): less evident in short term 3 week treatment) than long term 8-10 week treated mice | incidence of diabetes versus peanut oil-treated CY-treated control [3]: significantly reduced
